Values quoted from earlier work, collected in patent US20030162803A1, “Anhydrovinblastine for the treatment of cancer” (priority 1997, published 2003).

Conditions: triphasic elimination profile; cited from earlier work

In the case of `CC[C@]1(O)C[C@@H]2CN(CCc3c([nH]c4ccccc34)[C@@](C(=O)OC)(c3cc4c(cc3OC)N(C)[C@H]3[C@@](O)(C(=O)OC)[C@H](OC(C)=O)[C@]5(CC)C=CCN6CC[C@]43[C@@H]65)C2)C1` [Vinblastine], the initial alpha half-life is listed as “less than 5 minutes”.
